Experimental data reported in patent publication US9695155B2, “Herbicidal substituted pyrimidinyloxy benzene compounds” (E. I. DU PONT DE NEMOURS AND COMPANY, priority 2013, dated 2017).

Columns and labels:
pigweed [1] = assay: Test A preemergence; type: in vivo, Amaranthus retroflexus; settings: for Pigweed plant response rating (0 to 100 scale): 125 g ai/ha; for Pigweed plant response rating: 500 g ai/ha, 0 to 100 scale where 0 is no effect and 100 is complete control
Procedure, shortened: (§1)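 Compounds in non-phytotoxic solvent with surfactant applied as soil spray preemergence, or postemergence to plants 2-10 cm at one- to two-leaf stage, in loam/sand. After approximately 10 days in greenhouse, injury rated visually versus untreated controls, 0 (no effect) to 100 (complete control).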

barnyardgrass [2] = assay: Test A postemergence; type: in vivo, Echinochloa crus-galli; settings: 0 to 100 scale where 0 is no effect and 100 is complete control; for Barnyardgrass plant response rating: 125 g ai/ha; for Plant response rating, Barnyardgrass: 500 g ai/ha
Procedure, shortened: as §1

morningglory [3] = assay: Test A preemergence; type: in vivo, Ipomoea spp.; settings: for Morningglory plant response rating (0 to 100 scale): 125 g ai/ha; for Morningglory plant response rating: 500 g ai/ha, 0 to 100 scale where 0 is no effect and 100 is complete control
Procedure, shortened: as §1

wheat [4] = assay: Test A preemergence; type: in vivo, Triticum aestivum; settings: for Wheat plant response rating (0 to 100 scale): 125 g ai/ha; for Wheat plant response rating: 500 g ai/ha, 0 to 100 scale where 0 is no effect and 100 is complete control
Procedure, shortened: as §1

pigweed [5] = assay: Test A postemergence; type: in vivo, Amaranthus retroflexus; settings: 0 to 100 scale where 0 is no effect and 100 is complete control; for Pigweed plant response rating: 125 g ai/ha; for Plant response rating, Pigweed: 500 g ai/ha
Procedure, shortened: as §1

Heteranthera limosa = assay: Test B flooded paddy test; type: in vivo; settings: Flood, 250 g ai/ha; 0 to 100 scale where 0 is no effect and 100 is complete control
Procedure, shortened: (§2)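 Compound added straight to paddy water, with pots kept flooded 3 cm above soil, on plants grown to the 2-leaf stage. Visual scoring 0-100 (100 = complete control) against untreated controls after 13 to 15 greenhouse days.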

barnyardgrass [6] = assay: Test A preemergence; type: in vivo, Echinochloa crus-galli; settings: 0 to 100 scale where 0 is no effect and 100 is complete control; for Plant response rating, Barnyardgrass: 125 g ai/ha; for Barnyardgrass plant response rating: 500 g ai/ha
Procedure, shortened: as §1

morningglory [7] = assay: Test A postemergence; type: in vivo, Ipomoea spp.; settings: 0 to 100 scale where 0 is no effect and 100 is complete control; for Morningglory plant response rating: 125 g ai/ha; for Plant response rating, Morningglory: 500 g ai/ha
Procedure, shortened: as §1

giant foxtail [8] = assay: Test A postemergence; type: in vivo, Setaria faberii; settings: 0 to 100 scale where 0 is no effect and 100 is complete control; for Foxtail, Giant plant response rating: 125 g ai/ha; for Plant response rating, Foxtail, Giant: 500 g ai/ha
Procedure, shortened: as §1

barnyardgrass [9] = assay: Test B flooded paddy test; type: in vivo, Echinochloa crus-galli; settings: Flood, 250 g ai/ha; 0 to 100 scale where 0 is no effect and 100 is complete control
Procedure, shortened: as §2

large (Lg) crabgrass [10] = assay: Test A preemergence; type: in vivo, Digitaria sanguinalis; settings: 0 to 100 scale where 0 is no effect and 100 is complete control; for Plant response rating, Crabgrass, Large: 125 g ai/ha; for Crabgrass, Large plant response rating: 500 g ai/ha
Procedure, shortened: as §1

sedge, umbrella = assay: Test B flooded paddy test; type: in vivo, Cyperus difformis; settings: Flood, 250 g ai/ha; 0 to 100 scale where 0 is no effect and 100 is complete control
Procedure, shortened: as §2

velvetleaf [11] = assay: Test A preemergence; type: in vivo, Abutilon theophrasti; settings: for Velvetleaf plant response rating (0 to 100 scale): 125 g ai/ha; for Velvetleaf plant response rating: 500 g ai/ha, 0 to 100 scale where 0 is no effect and 100 is complete control
Procedure, shortened: as §1

large (Lg) crabgrass [12] = assay: Test A postemergence; type: in vivo, Digitaria sanguinalis; settings: 0 to 100 scale where 0 is no effect and 100 is complete control; for Crabgrass, Large plant response rating: 125 g ai/ha; for Plant response rating, Crabgrass, Large: 500 g ai/ha
Procedure, shortened: as §1

wheat [13] = assay: Test A postemergence; type: in vivo, Triticum aestivum; settings: 0 to 100 scale where 0 is no effect and 100 is complete control; for Wheat plant response rating: 125 g ai/ha; for Plant response rating, Wheat: 500 g ai/ha
Procedure, shortened: as §1

corn [14] = assay: Test A preemergence; type: in vivo, Zea mays; settings: 0 to 100 scale where 0 is no effect and 100 is complete control; for Plant response rating, Corn: 125 g ai/ha; for Corn plant response rating: 500 g ai/ha
Procedure, shortened: as §1

velvetleaf [15] = assay: Test A postemergence; type: in vivo, Abutilon theophrasti; settings: 0 to 100 scale where 0 is no effect and 100 is complete control; for Velvetleaf plant response rating: 125 g ai/ha; for Plant response rating, Velvetleaf: 500 g ai/ha
Procedure, shortened: as §1

corn [16] = assay: Test A postemergence; type: in vivo, Zea mays; settings: 0 to 100 scale where 0 is no effect and 100 is complete control; for Corn plant response rating: 125 g ai/ha; for Plant response rating, Corn: 500 g ai/ha
Procedure, shortened: as §1

giant foxtail [17] = assay: Test A preemergence; type: in vivo, Setaria faberii; settings: 0 to 100 scale where 0 is no effect and 100 is complete control; for Plant response rating, Foxtail, Giant: 125 g ai/ha; for Foxtail, Giant plant response rating: 500 g ai/ha
Procedure, shortened: as §1

rice = assay: Test B flooded paddy test; type: in vivo, Oryza sativa; settings: Flood, 250 g ai/ha; 0 to 100 scale where 0 is no effect and 100 is complete control
Procedure, shortened: as §2

## N#Cc1cccc(Oc2ncc(Br)cn2)c1-n1cccn1 [Compound 165]
Pigweed [1]
  Pigweed plant response rating (0 to 100 scale): 60
  Pigweed plant response rating: 90
Barnyardgrass [2]
  Barnyardgrass plant response rating: 0
  Plant response rating, Barnyardgrass: 0
Morningglory [3]
  Morningglory plant response rating (0 to 100 scale): 0
Wheat [4]
  Wheat plant response rating (0 to 100 scale): 0
  Wheat plant response rating: 0
Pigweed [5]
  Pigweed plant response rating: 30
  Plant response rating, Pigweed: 80
Heteranthera limosa
  Plant response rating, Ducksalad: 0
Barnyardgrass [6]
  Plant response rating, Barnyardgrass: 0
  Barnyardgrass plant response rating: 20
Morningglory [7]
  Morningglory plant response rating: 10
  Plant response rating, Morningglory: 20
Giant foxtail [8]
  Foxtail, Giant plant response rating: 10
  Plant response rating, Foxtail, Giant: 20
Barnyardgrass [9]
  Plant response rating, Barnyardgrass: 0
Large (Lg) crabgrass [10]
  Plant response rating, Crabgrass, Large: 50
  Crabgrass, Large plant response rating: 90
sedge, umbrella
  Plant response rating, Sedge, Umbrella: 0
Velvetleaf [11]
  Velvetleaf plant response rating (0 to 100 scale): 10
  Velvetleaf plant response rating: 20
Large (Lg) crabgrass [12]
  Crabgrass, Large plant response rating: 0
  Plant response rating, Crabgrass, Large: 10
Wheat [13]
  Wheat plant response rating: 0
  Plant response rating, Wheat: 0
Corn [14]
  Plant response rating, Corn: 0
  Corn plant response rating: 0
Velvetleaf [15]
  Velvetleaf plant response rating: 10
  Plant response rating, Velvetleaf: 30
Corn [16]
  Corn plant response rating: 0
  Plant response rating, Corn: 0
Giant foxtail [17]
  Plant response rating, Foxtail, Giant: 20
  Foxtail, Giant plant response rating: 90
rice
  Plant response rating, Rice: 0

## FC(F)(F)c1cnn(-c2c(Cl)cccc2Oc2ncc(Br)cn2)c1 [Compound 168]
Pigweed [1]
  Pigweed plant response rating (0 to 100 scale): 100
  Pigweed plant response rating: 100
Barnyardgrass [2]
  Barnyardgrass plant response rating: 50
  Plant response rating, Barnyardgrass: 90
Morningglory [3]
  Morningglory plant response rating (0 to 100 scale): 20
  Morningglory plant response rating: 80
Wheat [4]
  Wheat plant response rating (0 to 100 scale): 20
  Wheat plant response rating: 20
Pigweed [5]
  Pigweed plant response rating: 100
  Plant response rating, Pigweed: 100
Heteranthera limosa
  Plant response rating, Ducksalad: 90
Barnyardgrass [6]
  Plant response rating, Barnyardgrass: 50
  Barnyardgrass plant response rating: 80
Morningglory [7]
  Morningglory plant response rating: 50
  Plant response rating, Morningglory: 100
Giant foxtail [8]
  Foxtail, Giant plant response rating: 70
  Plant response rating, Foxtail, Giant: 90
Barnyardgrass [9]
  Plant response rating, Barnyardgrass: 0
Large (Lg) crabgrass [10]
  Plant response rating, Crabgrass, Large: 100
  Crabgrass, Large plant response rating: 100
sedge, umbrella
  Plant response rating, Sedge, Umbrella: 80
Velvetleaf [11]
  Velvetleaf plant response rating (0 to 100 scale): 70
  Velvetleaf plant response rating: 90
Large (Lg) crabgrass [12]
  Crabgrass, Large plant response rating: 70
  Plant response rating, Crabgrass, Large: 90
Wheat [13]
  Wheat plant response rating: 10
  Plant response rating, Wheat: 50
Corn [14]
  Plant response rating, Corn: 0
  Corn plant response rating: 20
Velvetleaf [15]
  Velvetleaf plant response rating: 90
  Plant response rating, Velvetleaf: 100
Corn [16]
  Corn plant response rating: 20
  Plant response rating, Corn: 30
Giant foxtail [17]
  Plant response rating, Foxtail, Giant: 100
  Foxtail, Giant plant response rating: 100
rice
  Plant response rating, Rice: 30

## O=Cc1cccc(Oc2ncc(Cl)cn2)c1-n1cc(C(F)(F)F)cn1 [Compound 171]
Pigweed [1]
  Pigweed plant response rating (0 to 100 scale): 90
  Pigweed plant response rating: 100
Barnyardgrass [2]
  Barnyardgrass plant response rating: 0
  Plant response rating, Barnyardgrass: 0
Morningglory [3]
  Morningglory plant response rating (0 to 100 scale): 0
  Morningglory plant response rating: 0
Wheat [4]
  Wheat plant response rating (0 to 100 scale): 0
  Wheat plant response rating: 0
Pigweed [5]
  Pigweed plant response rating: 100
  Plant response rating, Pigweed: 100
Heteranthera limosa
  Plant response rating, Ducksalad: 0
Barnyardgrass [6]
  Plant response rating, Barnyardgrass: 20
  Barnyardgrass plant response rating: 60
Morningglory [7]
  Morningglory plant response rating: 0
  Plant response rating, Morningglory: 0
Giant foxtail [8]
  Foxtail, Giant plant response rating: 0
  Plant response rating, Foxtail, Giant: 0
Barnyardgrass [9]
  Plant response rating, Barnyardgrass: 0
Large (Lg) crabgrass [10]
  Plant response rating, Crabgrass, Large: 0
  Crabgrass, Large plant response rating: 0
sedge, umbrella
  Plant response rating, Sedge, Umbrella: 0
Velvetleaf [11]
  Velvetleaf plant response rating (0 to 100 scale): 30
  Velvetleaf plant response rating: 70
Large (Lg) crabgrass [12]
  Crabgrass, Large plant response rating: 0
  Plant response rating, Crabgrass, Large: 0
Wheat [13]
  Wheat plant response rating: 0
  Plant response rating, Wheat: 0
Corn [14]
  Plant response rating, Corn: 0
  Corn plant response rating: 0
Velvetleaf [15]
  Velvetleaf plant response rating: 40
  Plant response rating, Velvetleaf: 70
Corn [16]
  Corn plant response rating: 0
  Plant response rating, Corn: 0
Giant foxtail [17]
  Plant response rating, Foxtail, Giant: 0
  Foxtail, Giant plant response rating: 0
rice
  Plant response rating, Rice: 0

## FC(F)c1cccc(Oc2ncc(I)cn2)c1-n1cc(Br)cn1 [Compound 173]
Pigweed [1]
  Pigweed plant response rating (0 to 100 scale): 80
  Pigweed plant response rating: 100
Barnyardgrass [2]
  Barnyardgrass plant response rating: 0
  Plant response rating, Barnyardgrass: 30
Morningglory [3]
  Morningglory plant response rating (0 to 100 scale): 0
  Morningglory plant response rating: 0
Wheat [4]
  Wheat plant response rating (0 to 100 scale): 0
  Wheat plant response rating: 0
Pigweed [5]
  Pigweed plant response rating: 100
  Plant response rating, Pigweed: 100
Heteranthera limosa
  Plant response rating, Ducksalad: 0
Barnyardgrass [6]
  Plant response rating, Barnyardgrass: 0
  Barnyardgrass plant response rating: 30
Morningglory [7]
  Morningglory plant response rating: 0
  Plant response rating, Morningglory: 0
Giant foxtail [8]
  Foxtail, Giant plant response rating: 10
  Plant response rating, Foxtail, Giant: 50
Barnyardgrass [9]
  Plant response rating, Barnyardgrass: 0
Large (Lg) crabgrass [10]
  Plant response rating, Crabgrass, Large: 20
  Crabgrass, Large plant response rating: 80
sedge, umbrella
  Plant response rating, Sedge, Umbrella: 0
Velvetleaf [11]
  Velvetleaf plant response rating (0 to 100 scale): 0
  Velvetleaf plant response rating: 0
Large (Lg) crabgrass [12]
  Crabgrass, Large plant response rating: 0
  Plant response rating, Crabgrass, Large: 40
Wheat [13]
  Wheat plant response rating: 0
  Plant response rating, Wheat: 0
Corn [14]
  Plant response rating, Corn: 0
  Corn plant response rating: 0
Velvetleaf [15]
  Velvetleaf plant response rating: 60
  Plant response rating, Velvetleaf: 70
Corn [16]
  Corn plant response rating: 0
  Plant response rating, Corn: 20
Giant foxtail [17]
  Plant response rating, Foxtail, Giant: 50
  Foxtail, Giant plant response rating: 70
rice
  Plant response rating, Rice: 0
